Measurements: patent EP0471612B1, “New steroids having an amide substituted group in the 11-beta position, their preparation, their use as medicines and pharmaceutical composition thereof” (ROUSSEL UCLAF, priority 1990, dated 1992)
Read-outs that look alike come from different tables or passages of the source.

Key:
[1] = target: T1, récepteur estrogène de l'utérus de souris (Mus musculus, UniProt P19785); experiment: Relative binding affinity (ARL) for the estrogen receptor, mouse uterus cytosol, displacement of tritiated estradiol; conditions: ARL = 100 (CH)/(CX), estradiol = 100, head prints 0°C; for Récepteurs Oestrogène Temps d'incubation à 0°C 5H (affinité relative de liaison, ARL): incubation 5H (second time); for Récepteurs Oestrogène Temps d'incubation à 0°C 2H (affinité relative de liaison, ARL): incubation 2H
T1 construct: les utérus sont prélevés puis homogénéisés a 0°C; from tissue; host or cells: uterus of immature female mice (18-21 days), cytosol (105 000 g supernatant)
T1 sequence (P19785 1-599): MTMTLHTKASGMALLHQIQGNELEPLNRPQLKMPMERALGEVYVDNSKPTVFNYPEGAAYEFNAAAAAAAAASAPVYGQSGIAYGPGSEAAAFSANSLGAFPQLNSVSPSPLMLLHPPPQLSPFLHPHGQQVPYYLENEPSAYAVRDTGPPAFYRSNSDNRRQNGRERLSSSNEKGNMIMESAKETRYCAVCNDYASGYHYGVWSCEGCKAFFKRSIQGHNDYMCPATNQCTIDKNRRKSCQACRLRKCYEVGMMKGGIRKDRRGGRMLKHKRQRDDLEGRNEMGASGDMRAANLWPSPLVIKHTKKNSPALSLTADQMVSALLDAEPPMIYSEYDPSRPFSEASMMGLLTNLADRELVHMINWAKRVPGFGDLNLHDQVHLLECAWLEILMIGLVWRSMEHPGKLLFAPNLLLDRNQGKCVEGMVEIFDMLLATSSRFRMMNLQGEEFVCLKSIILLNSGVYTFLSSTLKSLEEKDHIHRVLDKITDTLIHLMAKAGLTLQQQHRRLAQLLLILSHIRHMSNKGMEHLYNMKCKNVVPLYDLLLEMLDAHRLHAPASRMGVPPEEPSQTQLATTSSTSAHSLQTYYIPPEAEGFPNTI
Experimental: Des souris femelles impubères âgées de 18 a 21 jours sont sacrifiées, les utérus sont prélevés puis homogénéisés a 0°C à l'aide d'un Potter teflon-verre dans une solution tamponnée TS (Tris 10 mM, saccharose 0,25 M, HCl pH 7,4 (1 g de tissu pour 25 ml de TS). L'homogénat est ensuite ultracentrifugé (105 000 g x 90 mn) à 0°C. Des aliquotes du surnageant ainsi obtenu, sont incubées a 0°C ou a 25°C pendant un temps (t) avec une concentration constante (T) d'estradiol tritié en présence de concentrations croissantes (0 - 1000.10^-9 M) soit d'estradiol froid, soit du produit froid a tester. La concentration d'estradiol tritié lié (B) est ensuite mesurée dans chaque incubat par la technique d'adsorption au charbon-dextran.
Le calcul de l'affinité relative de liaison (ARL) est identique pour tous les récepteurs.
On trace les 2 courbes suivantes : le pourcentage de l'hormone tritiée liée (B)/(T) [formula] en fonction du logarithme de la concentration de l'hormone de référence froide et (B)/(T) [formula] en fonction du logarithme de la concentration du produit froid testé.
On détermine la droite d'équation I50 = ((B)/(T)max +(B)/(T)min)/2. [formula] (B)/(T) [formula] max = Pourcentage de l'hormone tritiée liée pour une incubation de cette hormone tritiée à la concentration (T). (B)/(T) [formula] min = Pourcentage de l'hormone tritiée liée pour une incubation de cette hormone tritiée à la concentration (T) en présence d'un grand excès d'hormone froide (2500.10^-9M).
Les intersections de la droit I50 et des courbes permettent d'évaluer les concentrations de l'hormone de référence froide (CH) et du produit froid testé (CX) qui inhibent de 50 % la liaison de l'hormone tritiée sur le récepteur.
L'affinité relative de liaison (ARL) du produit testé est déterminée par l'équation ARL = 100((CH))/((CX)). [formula]

[2] = tested on: cellules tumorales mammaires MCF-7; experiment: Anti-proliferative activity on growth of MCF-7 mammary tumour cells (DNA assay with DABA); type: cell-based; conditions: Homo sapiens, MCF7, 144 h, read-out: CI50 (concentration qui inhibe de 50 % la croissance des cellules MCF7)
Experimental: Les lignées MCF-7 sont maintenues en culture en milieu SVF(1) à 37°C en atmosphère humide contenant 5 % CO2. Les cellules à subconfluence sont récoltées par trypsination (trypsine 0,05 %, EDTA 0,02 %) puis rincées par centrifugation douce. Un échantillon des cellules en suspension est compté sur cellule de Malassez.
Les cellules resuspendues dans le milieu SVF sont ensemencées à raison de 30.000 cellules par puits dans des plaques multipuits (24 puits de 2,5 cm^2). Vingt quatre heures après l'ensemencement (JO), le produit à tester est ajouté au milieu en solution éthanolique (concentration finale en éthanol : 0,1 %), à la concentration de 10^-12 à 10^-6M, les puits contrôles recevant la même concentration en éthanol. Les milieux sont renouvelés toutes les 48 heures. En fin d'expérience (J6), le milieu est aspiré et les cellules sont immédiatement fixées par 150 microlitres de méthanol afin de doser l'ADN.
L'activité anti-proliférative des produits est évaluée par leur capacité à inhiber l'augmentation d'ADN.
L'ADN est dosé par une méthode fluorimétrique utilisant le DABA (Acide 3,5 diaminobenzoïque) (2) : 150 microlitres de DABA sont ajoutés dans chaque puits; les plaques sont alors incubées 45 mn à 56°C, puis 2 ml d'HCl 1N sont ajoutés. La fluorescence est mesurée à l'aide d'un fluorimètre (longueur d'onde excitatrice : 408 nm, longueur d'onde d'émission : 510 nm).
La quantité d'ADN par puits est évaluée par rapport à une gamme étalon obtenue en traitant dans les mêmes conditions un standard d'ADN de thymus de veau.
La concentration en nm qui inhibe de 50 % la croissance des cellules MCF7 (CI50) a été déterminée de la manière indiquée ci-dessus : […]

[3] = MCF-7, product 10^-12 to 10^-6M, 6 days (J6), DNA measured

| Compound | Récepteurs Oestrogène Temps d'incubation à 0°C 5H (affinité relative de liaison, ARL) [1] | IC50 [2, 3] [nM] | Récepteurs Oestrogène Temps d'incubation à 0°C 2H (affinité relative de liaison, ARL) [1] | IC50 [2] [nM] | Récepteurs Oestrogène Temps d'incubation à 0°C 5H (affinité relative de liaison, ARL) ([1]; listed as exemple 14) |
| --- | --- | --- | --- | --- | --- |
| CCCCN(C)C(=S)COCCCCCOc1ccc([C@H]2C[C@]3(C)[C@@H](O)CC[C@H]3[C@@H]3CCc4cc(O)ccc4[C@H]32)cc1 [Exemple 1] | 20 | 0.03 |  |  |  |
| CCCCN(C)C(=S)CCCCCCCOc1ccc([C@H]2C[C@]3(C)[C@@H](O)CC[C@H]3[C@@H]3CCc4cc(O)ccc4[C@H]32)cc1 [Exemple 2, N-butyl-8-(4-(3,17béta-dihydroxy-estra-1,3,5(10)-trien-11béta-yl)phénoxy)-N-méthyl-octanethioamide] | 16 | 0.035 |  |  |  |
| CN(CC(F)(F)C(F)(F)C(F)(F)F)C(=O)CCCCCCCOc1ccc([C@H]2C[C@]3(C)[C@@H](O)CC[C@H]3[C@@H]3CCc4cc(O)ccc4[C@H]32)cc1 [Exemple 5, 8-(4-(3,17béta-dihydroxy-estra-1,3,5(10)-trien-11béta-yl)phénoxy)-N-(2,2,3,3,4,4,4-heptafluorobutyl)-N-méthyl-octanamide] | 23 |  | 0 | 0.02 |  |
| CCCCN(C)C(=O)COCCCCCCOc1ccc([C@H]2C[C@]3(C)[C@@H](O)CC[C@H]3[C@@H]3CCc4cc(O)ccc4[C@H]32)cc1 [Exemple 6] | 29 | 0.007 | 3,3 |  |  |
| CCCCN(C)C(=O)CSCCCCCc1ccc([C@H]2C[C@]3(C)[C@@H](O)CC[C@H]3[C@@H]3CCc4cc(O)ccc4[C@H]32)cc1 [Exemple 9, N-butyl-2-((5-(4-(3,17béta-dihydroxy-estra-1,3,5(10)-trien-11béta-yl)phényl)pentyl)thio)-N-méthyl-acétamide] | 11,7 | 0.009 |  |  |  |
| C#C[C@]1(O)CC[C@H]2[C@@H]3CCc4cc(O)ccc4[C@H]3[C@@H](CCCCCCCCOCC(=O)N(C)C(C)C)C[C@@]21C [Exemple 14, 2-((8-(3,17béta-dihydroxy19-nor-17alpha-pregna-1,3,5(10)-trien-20-yn-11béta-yl)octyl)oxy)-N-méthyl-N-(1-méthyléthyl)-acétamide] | 47 | 0.015 | 2,8 |  | affinité marquée |
| CCCCN(C)C(=S)CSCCCCCOc1ccc([C@H]2C[C@]3(C)[C@@H](O)CC[C@H]3[C@@H]3CCc4cc(O)ccc4[C@H]32)cc1 [Exemple 18] | 16 |  |  |  |  |
